Laboratory results: US5585385A, “Heterocyclic compounds, their production and use as tachykinin reactor antagonists” (Takeda Chemical Industries, Ltd., priority 1993, dated 1996)

Experiments:
[1] = biological target: T1, substance P receptor (Homo sapiens, UniProt P25103); assay: Radioligand receptor binding inhibitory activity using receptor from human lymphoblast cells (IM-9), 125I-BHSP; settings: human IM-9 cell receptor, 25° C., 30 minutes, pH 7.4, n=1
T1 construct: The receptor was prepared from human lymphoblast cells (IM-9); endogenous in cells; host or cells: IM-9 human lymphoblast cells (crude membrane preparation)
Experimental: Radioligand receptor binding inhibitory activity
Binding inhibitory activity using receptor from human lymphoblast cells (IM-9)
The method of A. Margaret "Molecular Pharmacology 42, p.458 (1992)" was modified and used. The receptor was prepared from human lymphoblast cells (IM-9). IM-9 cells (2×10^5 cells/ml) were inoculated and incubated for 3 days (one liter), which was then subjected to centrifuge for 5 minutes at 500×g to obtain cell pellets. The pellets were washed once with phosphate buffer (Flow Laboratories, CAT. No. 28-103-05), which were then crushed using Polytron.homogenizer "Kinematika, Germany" in 30 ml of 50 mM Tris-HCl buffer (pH 7.4) containing 120 mM sodium chloride, 5 mM potassium chloride, 2 μg/ml chymostatin, 40 μg/ml bacitracin, 5 μg/ml phosphoramidon, 0.5 mM phenylmethyl sulfonyl fluoride, 1 mM ethylenediamine tetra-acetic acid, which was subjected to centrifuge at 40,000×g for 20 minutes. The residue was washed twice with 30 ml of the above-mentioned buffer, which was then preserved frozen (-80° C.) as a specimen of the receptor.
The specimen was suspended in a reaction buffer (50 mM Tri-HCl buffer (pH 7.4), 0.02% bovine serum albumin, 1 mM phenylmethylsulfonyl fluoride, 2 μg/chymostatin, 40 μg/ml bacitracin, 3 mM manganese chloride) and 100 ul portion was the suspension was used in the reaction. After addition of the sample and ^125 I-BHSP (0.46 KBq), the reaction was allowed to proceed in 0.2 ml of reaction buffer at 25° C. for 30 minutes. The amount of nonspecific binding was determined by adding substance P at a final concentration of 2×10^-6 M. After the reaction, using a cell harvester (290 PHD, Cambridge Technology, Inc, U.S.A.), rapid filtration was carried out through a glass filter (GF/B, Whatman, U.S.A.) to stop the reaction. After washing three times with 250 ul of 50 mM of Tris-HCl buffer (pH 7.4) containing 0.02% bovine serum albumin, the radioactivity remaining on the filter was determined with a gamma counter. Before use, the filter was immersed in 0.1% polyethyleneimine for 24 hours and air-dried. […] (Radioligand means substance P labelled with ^125 I.) The number of this experiment is one.

[2] = tested on: plasma extravasation induced by capsaicin in trachea; assay: Inhibitory effect on plasma extravasation induced by capsaicin in trachea of guinea pigs; assay type: in vivo, guinea pigs (Hartley type white male); settings: Cavia porcellus, iv, 5 min, 5 min before capsaicin (150 μg/kg i.v.), guinea pig trachea, n=6; for inhibition in vivo at 0.03 mg/kg: 0.03 mg/kg i.v.; for inhibition in vivo at 0.1 mg/kg: 0.1 mg/kg i.v.
Experimental: Inhibitory effect on plasma extravasation induced by capsaicin in trachea of guinea pigs
Guinea pigs (Hartley type white male guinea pigs), (n=6) were anesthetized with 35 mg/kg of pentobarbital injected intraperitoneally (i.p.), then test compounds were administered intravenously (i.v.). After 5 minutes, a mixed solution of capsaicin (150 μg/kg) and Evans' blue dye (20 mg/kg) was administered intravenously to cause reaction. Ten minutes later, test animals were sacrificed by cutting the aorta, then perfused through pulmonary artery with 50 ml of physiological saline. The trachea was excised, and its wet weight was measured. The trachea was incubated at room temperature in 1 ml of acetone-0.3% sodium sulfate (7:3) overnight and Evans' blue dye was extracted from the trachea. The extract solution was centrifuged at 2800 rpm for 5 minutes. The amount of Evans' blue dye in the supernatant was quantified by measuring absorbance at […].
Plasma extravasation was expressed in terms of the amount of Evans' blue dye (μg) relative to the weight of the trachea (g). The efficacy of the drug was evaluated by calculating the % inhibition in accordance with the following formula. [formula] A: the amount of Evan's blue dye (μg/g) in each test animal B: the mean amount of Evan's blue dye (μg/g) of the group untreated with capsaicin.
C: the mean amount of Evan's blue dye (μg/g) of control group

T1 sequence (P25103 whole entry): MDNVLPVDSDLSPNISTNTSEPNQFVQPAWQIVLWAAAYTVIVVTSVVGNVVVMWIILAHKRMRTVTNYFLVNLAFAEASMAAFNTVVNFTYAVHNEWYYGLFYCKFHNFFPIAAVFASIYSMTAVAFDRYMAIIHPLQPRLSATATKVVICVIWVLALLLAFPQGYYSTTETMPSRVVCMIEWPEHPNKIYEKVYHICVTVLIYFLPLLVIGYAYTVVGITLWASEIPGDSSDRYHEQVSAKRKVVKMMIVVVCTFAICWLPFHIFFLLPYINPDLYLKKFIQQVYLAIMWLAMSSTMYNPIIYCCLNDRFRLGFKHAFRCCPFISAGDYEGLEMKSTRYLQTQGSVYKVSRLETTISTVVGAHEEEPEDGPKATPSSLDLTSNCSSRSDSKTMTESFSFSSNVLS

| IC50 [1] [nM] | Compound | inhibition in vivo at 0.03 mg/kg [2] [%] | inhibition in vivo at 0.1 mg/kg [2] [%] |
| --- | --- | --- | --- |
| 0.08 | CN(Cc1cc(C(F)(F)F)cc(C(F)(F)F)c1)C(=O)c1c(-c2ccc(F)cc2)c2cccnc2c(=O)n1C [Example 1, N-[3,5-Bis(trifluoromethyl)benzyl]-5-(4-fluorophenyl)-7,8-dihydro-N, 7-dimethyl-8-oxo-6-pyrido[3,4-b]pyridine carboxamide] | 76.1 | – |
| 0.2 | CN(Cc1cc(C(F)(F)F)cc(C(F)(F)F)c1)C(=O)c1c(-c2ccc(F)cc2)c2nccnc2c(=O)n1C [Example 7, N-[3,5-Bis(trifluoromethyl)benzyl]-8-(4-fluorophenyl)-5,6-dihydro-N, 6-dimethyl-5-oxo-7-pyrido[3,4-b]pyrazine carboxamide] | – | 71.9 |
| 0.17 | CN(Cc1cc(C(F)(F)F)cc(C(F)(F)F)c1)C(=O)c1c(-c2ccc(F)cc2)c2ccncc2c(=O)n1C [Example 8, N-[3,5-Bis(trifluoromethyl)benzyl]-4-(4-fluorophenyl)-1,2-dihydro-N, 2-dimethyl-1-oxo-3-pyrido[3,4-c]pyridine carboxamide] | – | 64.9 |
| 0.08 | CN(Cc1cc(C(F)(F)F)cc(C(F)(F)F)c1)C(=O)c1c(-c2ccc(F)cc2)c2ccsc2c(=O)n1C [Example 13, N-[3,5-Bis(trifluoromethyl)benzyl]-4-(4-fluorophenyl)-6,7-dihydro-N, 6-dimethyl-7-oxo-5-thieno[2,3-c]pyridinecarboxamide] | – | 76.1 |
| 0.31 | CN(Cc1cc(C(F)(F)F)cc(C(F)(F)F)c1)C(=O)c1c(-c2ccc(F)cc2)c2sccc2c(=O)n1C [Example 17, N-[3,5-Bis(trifluoromethyl)benzyl]-7-(4-fluorophenyl)-4,5-dihydro-N, 5-dimethyl-4-oxo-6-thieno[3,2-c]pyridinecarboxamide] | – | 51.5 |
| 0.05 | Cc1ccccc1-c1c2c(c(=O)n(C)c1C(=O)N(C)Cc1cc(C(F)(F)F)cc(C(F)(F)F)c1)CCCN2 [Example 26, N-[3,5-Bis(trifluoromethyl)benzyl]-1,2,3,4,5,6-hexahydro-N, 6-dimethyl-8-(2-methylphenyl)-5-oxo-7-pyrido[4,3-b]pyridinecarboxamide] | 46.2 | – |
| 0.18 | CN(Cc1cc(C(F)(F)F)cc(C(F)(F)F)c1)C(=O)c1c(-c2ccc(F)cc2)c2c(c(=O)n1C)CCCN2 [Example 27, N-[3,5-Bis(trifluoromethyl)benzyl]-8-(4-fluorophenyl)-1,2,3,4,5,6-hexahydro-N, 6-dimethyl-5-oxo-7-pyrido[4,3-b]pyridinecarboxamide] | – | 74 |
| 0.34 | CN(Cc1cc(C(F)(F)F)cc(C(F)(F)F)c1)C(=O)c1c(-c2ccccc2)c2cccnc2c(=O)n1C [Example 36, N-[3,5-Bis(trifluoromethyl)benzyl]-7,8-dihydro-N, 7-dimethyl-8-oxo-5-phenyl-6-pyrido[3,4-b]pyridinecarboxamide] | 54.3 | – |
| 0.28 | CN(Cc1cc(C(F)(F)F)cc(C(F)(F)F)c1)C(=O)c1c(-c2ccc(F)cc2)c2ccn(C)c2c(=O)n1C [Example 39, N-[3,5-Bis(trifluoromethyl)benzyl]-4-(4-fluorophenyl)-6,7-dihydro-N,1,6-trimethyl-7-oxo-5-pyrrolo[2,3-c]pyridinecarboxamide] | – | 67.9 |
| 1.1 | CN(Cc1cc(C(F)(F)F)cc(C(F)(F)F)c1)C(=O)c1c(-c2ccc(F)cc2)c2scnc2c(=O)n1C [Example 41, N-[3,5-Bis(trifluoromethyl)benzyl]-7-(4-fluorophenyl)-4,5-dihydro-N, 5-dimethyl-4-oxo-6-thiazolo[4,5-c]pyridinecarboxamide] | – | 46.9 |
| 1.3 | CN(Cc1cc(C(F)(F)F)cc(C(F)(F)F)c1)C(=O)c1c(-c2ccccc2)c2c(c(=O)n1C)N(C)CCC2 [Example 49, N-[3,5-Bis(trifluoromethyl)benzyl]-1,2,3,4,7,8-hexahydro-5-phenyl-N,1,7-trimethyl-8-oxo-6-pyrido[3,4-b]pyridinecarboxamide] | – | 66.7 |
| 0.4 | CN1CCc2c(-c3ccccc3)c(C(=O)N(C)Cc3cc(C(F)(F)F)cc(C(F)(F)F)c3)n(C)c(=O)c2C1 [Example 50, N-[3,5-Bis(trifluoromethyl)benzyl]-1,2,5,6,7,8-hexahydro-N,2,7-trimethyl-1-oxo-4-phenyl-3-pyrido[3,4-c]pyridinecarboxamide] | – | 52.2 |
| 0.15 | CN(Cc1cc(C(F)(F)F)cc(C(F)(F)F)c1)C(=O)c1c(-c2ccc(F)cc2)c2c(c(=O)n1C)CNCC2 [Example 53, N-[3,5-Bis(trifluoromethyl)benzyl]-4-(4-fluorophenyl)-1,2,5,6,7,8-hexahydro-N,2-dimethyl-1-oxo-3-pyrido[3,4-c]pyridinecarboxamide] | – | 59.9 |
| 0.4 | CN(Cc1cc(C(F)(F)F)cc(C(F)(F)F)c1)C(=O)c1c(-c2ccccc2)c2c(c(=O)n1C)CNCC2 [Example 54, N-[3,5-Bis(trifluoromethyl)benzyl]-1,2,5,6,7,8-hexahydro-N,2-dimethyl-1-oxo-4-phenyl-3-pyrido[3,4-c]pyridinecarboxamide] | – | 48.3 |
| 0.34 | Cc1ccc(-c2c(C(=O)N(C)Cc3cc(C(F)(F)F)cc(C(F)(F)F)c3)n(C)c(=O)c3ncccc23)cc1 [Example 56, N-[3,5-Bis(trifluoromethyl)benzyl]-7,8-dihydro-N, 7-dimethyl-5-(4-methylphenyl)-8-oxo-6-pyrido[3,4-b]pyridinecarboxamide] | 58.1 | – |
| 3.8 | COc1ccc(-c2c(C(=O)N(C)Cc3cc(C(F)(F)F)cc(C(F)(F)F)c3)n(C)c(=O)c3ncccc23)cc1 [Example 57, N-[3,5-Bis(trifluoromethyl)benzyl]-7,8-dihydro-5-(4-methoxyphenyl)-N,7-dimethyl-8-oxo-6-pyrido[3,4-b]pyridinecarboxamide] | – | 51.4 |
| 0.72 | Cc1ccc(-c2c(C(=O)N(C)Cc3cc(C(F)(F)F)cc(C(F)(F)F)c3)n(C)c(=O)c3cnccc23)cc1 [Example 58, N-[3,5-Bis(trifluoromethyl)benzyl]-1,2-dihydro-N, 2-dimethyl-4-(4-methylphenyl)-1-oxo-3-pyrido[3,4-c]pyridinecarboxamide] | – | 35.2 |
| 0.12 | Cc1ccc(-c2c3c(c(=O)n(C)c2C(=O)N(C)Cc2cc(C(F)(F)F)cc(C(F)(F)F)c2)CN(C)CC3)cc1 [Example 59, N-[3,5-Bis(trifluoromethyl)benzyl]-1,2,5,6,7,8-hexahydro-N,2,7-trimethyl-4-(4-methylphenyl)-1-oxo-3-pyrido[3,4-c]pyridinecarboxamide] | 55 | – |
